Source: paper PMC10018782, “Citrus β-carotene hydroxylase 2 (BCH2) participates in xanthophyll synthesis by catalyzing the hydroxylation of β-carotene and compensates for BCH1 in citrus carotenoid metabolism” (Horticulture Research, 2022)

Key:
Test in all cases: functional complementation in beta-carotene-accumulating E. coli, HPLC of carotenoids
Format in all cases: cell-based
Conditions in all cases: E. coli BL21(DE3) with pACCAR16ΔcrtX, 16 °C, 16 h
CsBCH2a = biological target: T1, CsBCH2a (Citrus sinensis, UniProt A0ACB8LPZ5)
T1 construct: gene KPL71_006397; full ORF in pHIS8 (His tag), E. coli BL21(DE3); allele identical in mandarin and sweet orange, two non-synonymous sites versus CsBCH2b

CsBCH2b = biological target: T2, CsBCH2b (Citrus sinensis, UniProt A0ACB8LPZ5)
T2 construct: gene KPL71_006397; full ORF in pHIS8 (His tag), E. coli BL21(DE3); allele found in pummelo and sweet orange, two non-synonymous sites versus CsBCH2a

CsBCH1 = biological target: T3, CsBCH1 (Citrus sinensis, UniProt Q0QVY5)
T3 construct: gene Chyb; full ORF in pHIS8 (His tag), E. coli BL21(DE3)
T3 sequence (Q0QVY5 1-311): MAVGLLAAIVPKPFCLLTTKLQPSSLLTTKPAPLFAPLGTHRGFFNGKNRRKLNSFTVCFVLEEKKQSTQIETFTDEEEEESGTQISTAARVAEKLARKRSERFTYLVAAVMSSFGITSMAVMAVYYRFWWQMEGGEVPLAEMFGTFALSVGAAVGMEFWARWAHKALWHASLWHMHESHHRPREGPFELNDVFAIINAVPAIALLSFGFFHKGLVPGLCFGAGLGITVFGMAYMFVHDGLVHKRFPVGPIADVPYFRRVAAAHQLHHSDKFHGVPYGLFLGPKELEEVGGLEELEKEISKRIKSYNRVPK

T2 sequence (A0ACB8LPZ5 entry or part of it): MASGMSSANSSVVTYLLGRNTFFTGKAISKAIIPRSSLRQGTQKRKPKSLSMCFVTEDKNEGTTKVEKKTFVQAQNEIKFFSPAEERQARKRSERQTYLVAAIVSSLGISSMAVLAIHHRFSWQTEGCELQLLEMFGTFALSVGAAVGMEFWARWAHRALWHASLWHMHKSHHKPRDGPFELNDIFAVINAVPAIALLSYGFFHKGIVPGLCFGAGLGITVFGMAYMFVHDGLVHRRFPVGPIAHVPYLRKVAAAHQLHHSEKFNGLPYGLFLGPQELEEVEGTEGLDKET
T1 sequence (A0ACB8LPZ5 entry or part of it): as above

Compound | functional complementation in beta-carotene-accumulating E. coli, HPLC of carote (CsBCH2a) | functional complementation in beta-carotene-accumulating E. coli, HPLC of carote (CsBCH2b) | functional complementation in beta-carotene-accumulating E. coli, HPLC of carote (CsBCH1) | functional complementation in beta-carotene-accumulating E. coli, HPLC of carote (CsBCH1; intermediate formed in the cells, hydroxylated on to zeaxanthin)
CC1=C(/C=C/C(C)=C/C=C/C(C)=C/C=C/C=C(C)/C=C/C=C(C)/C=C/C2=C(C)CCCC2(C)C)C(C)(C)CCC1 [β-carotene] | CsBCH2a and CsBCH2b hydroxylated β-carotene to generate only β-cryptoxanthin in E. coli | CsBCH2a and CsBCH2b hydroxylated β-carotene to generate only β-cryptoxanthin in E. coli | CsBCH1 effectively hydroxylated the two β-rings of β-carotene | 
CC1=C(/C=C/C(C)=C/C=C/C(C)=C/C=C/C=C(C)/C=C/C=C(C)/C=C/C2=C(C)C[C@@H](O)CC2(C)C)C(C)(C)CCC1 [β-cryptoxanthin] |  |  |  | mono-hydroxylated intermediate β-cryptoxanthin and the di-hydroxylated product zeaxanthin
